One data set concerns the target T1, cyclooxygenase 1 (COX1) (Homo sapiens, UniProt P23219).
T1 construct: Eurofins Cerep SA (CRO)
In words: SafetyScreen44: COX1. It counts as biochemical. The source says: Moreover, we explored the safety profile of frontrunner (R)‐30 in more detail in order to detect additional crucial off‐target interactions. For this purpose, we employed the SafetyScreen44 in vitro panel comprising selected binding, inhibition and uptake assays.^[ [35] ^] The panel is a specialized pharmacological profiling tool that tests compounds against 44 key molecular targets, aiming to identify potential safety risks early in drug discovery. […]
The off-target Safety Screen44TM was performed by the CRO Eurofins Cerep SA (Celle-
L'Evescault, France) according to their protocols.[13] […]
MMP-1 MMP-2 MMP-3 TACE (ADAM17)
Compound [% inhibition at [% inhibition at [% inhibition at [% inhibition at 100

A short description of data set [1]: In vivo pharmacokinetic study in CD-1 mice, 30 mg/kg SC. Particulars: male, mouse, 30 mg/kg subcutaneous. The protocol:
page 60: Figure S7: Basolateral concentration of 9 (A) and 30 (B) in the Calu-3 permeability model. […] For pharmacokinetic experiments, outbred male CD-1 mice (Charles River, Netherlands), 4 weeks old, were used. The animal studies were conducted in accordance with the recommendations of the European Community (Directive 2010/63/EU, 1st January 2013). All animal procedures were performed in strict accordance with the German regulations of the Society for Laboratory Animal Science (GV-SOLAS) and the European Health Law of the Federation of Laboratory Animal Science Associations (FELASA). Animals were excluded from further analysis if sacrifice was necessary according to the human endpoints established by the ethical board. All experiments were approved by the ethical board of the […] Verbraucherschutz und […], Oldenburg, Germany. 30 was subjected to a focused PK study and was administered 30 mg/kg SC. At time points t= […] euthanatized and blood was collected from the heart. For all PK studies, whole blood was collected into Eppendorf tubes coated with 0.5 M EDTA and immediately spun down at 13,000 rpm for 10 min at 4°C. The plasma was transferred into a new Eppendorf tube and then stored at -80°C until analysis. Then, a broncheoalveolar lavage was conducted using isotonic sodium chloride solution for all PK studies. For all PK studies, lung, kidney and liver were aseptically removed and homogenized using a Polytron (Kinematica) in isotonic sodium chloride solution. Organ samples were aliquoted into Eppendorf tubes and stored at -80°C until analysis. Moreover, spontaneous urine was also collected. […] system and coupled to an AB Sciex QTrap6500+ mass spectrometer as described previously.[10] Mass spectrometric conditions can be found in Table S5. First, a calibration curve was prepared by spiking different concentrations of 30 into the respective matrix (mouse […] (1 picture or pasted object on this page, not shown here) page 61: plasma (pooled, from CD-1 mice) for plasma samples, isotonic sodium chloride solution for BALF samples, lung tissue for lung samples, kidney tissue for kidney samples, liver tissue for liver samples and urine for urine samples). Caffeine was used as an internal standard. In addition, quality control samples (QCs) were prepared for 30 with the respective matrix. The following extraction procedure was used: 7.5 μl of a plasma sample (calibration samples, QCs […] internal standard for 5 min at 2000 rpm on an Eppendorf MixMate® vortex mixer. 10 μl of a urine sample (calibration samples, QCs or PK samples) was extracted with 40 μl of methanol containing 12.5 ng/ml of caffeine as internal standard for 5 min at 2000 rpm on an Eppendorf MixMate® vortex mixer. Then samples (plasma and urine) were spun down at 13.000 rpm for 5 min. Supernatants were transferred to standard HPLC-glass vials. 50 μl of a BALF / lung tissue / kidney tissue or liver tissue sample (calibration samples, QCs or PK samples) were extracted with 50 μl of methanol and 1 μl caffeine (concentration 1 μg/ml in methanol) for 5 min at 800 rpm on an Eppendorf MixMate® vortex mixer. Then samples (BALF, liver, kidney, lung) were spun down at 4,000 rpm for 40 min at 4°C. Supernatants were transferred to 96well V-bottom plates (Greiner). Urea was used to enable calculation of epithelial lining fluid (ELF) concentrations. Peak areas of each sample and of the corresponding internal standard were analyzed using MultiQuant 3.0 software (AB Sciex). Peak areas of the respective sample were normalized to the internal standard peak area. Peaks of PK samples were quantified using the calibration curve. The accuracy of the calibration curve was determined using QCs independently prepared on different days. PK parameters were determined using a non- compartmental analysis with PKSolver.[11] ELF concentrations were calculated using the following formula (2).[12] (1) V_ELF=V_BALF × (Urea_BALF)/(Urea_Plasma ) (2) c_ELF=c_BALF× V_BALF/V_ELF S60

Each structure is given as a SMILES string.

T1 sequence (P23219 24-599): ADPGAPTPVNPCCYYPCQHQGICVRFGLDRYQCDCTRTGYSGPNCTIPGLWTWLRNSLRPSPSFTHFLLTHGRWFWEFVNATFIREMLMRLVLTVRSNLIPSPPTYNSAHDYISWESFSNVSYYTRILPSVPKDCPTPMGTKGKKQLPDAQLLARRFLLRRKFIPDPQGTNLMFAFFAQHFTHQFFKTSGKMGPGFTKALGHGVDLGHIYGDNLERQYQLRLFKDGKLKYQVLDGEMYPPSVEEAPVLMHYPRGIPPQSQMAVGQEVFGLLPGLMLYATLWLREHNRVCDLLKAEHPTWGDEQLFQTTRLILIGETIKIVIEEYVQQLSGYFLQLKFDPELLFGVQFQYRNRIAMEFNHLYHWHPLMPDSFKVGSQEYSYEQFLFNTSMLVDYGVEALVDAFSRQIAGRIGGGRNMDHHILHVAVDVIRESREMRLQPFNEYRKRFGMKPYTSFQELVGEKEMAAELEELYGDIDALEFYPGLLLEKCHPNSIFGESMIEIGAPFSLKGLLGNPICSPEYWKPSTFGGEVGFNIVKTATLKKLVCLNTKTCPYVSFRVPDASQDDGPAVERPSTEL

As usually defined, the inhibition is how much of the control response was suppressed. Low readings indicate a response near the control, high ones a response far below the control. Consider `CC(=O)c1ccc(NC(=O)[C@@H](NC(=O)[C@@H](CC(C)C)P(=O)(O)O)C(C)C)cc1` [(R)‐30], for which the inhibition at 100 µM against cyclooxygenase 1 (COX1) was found to be 81.5%.

As a reminder, the AUC(0-t) is the area under the concentration-time curve up to a stated or last time point. Read a low AUC(0-t) as low exposure. Usually CL/F stands for clearance divided by bioavailability, as obtained after extravascular dosing. For orientation: Cmax means the maximum level reached in the sampled fluid or tissue. Broadly, the MRT is the average time that molecules of a dose stay in the body. For orientation: Tmax means the time at which the peak concentration occurs. One may read the half-life as how long it takes for the measured level to halve. A lower half-life goes with rapid decline. As for `CC(=O)c1ccc(NC(=O)[C@@H](NC(=O)C(CC(C)C)P(=O)(O)O)C(C)C)cc1` (some centres unmarked) [compound 30], the Kp in data set [1] (CD-1, epithelial lining fluid (ELF) / plasma, sc, read-out: ELF/plasma ratio) was around 0.38. In data set [1] (CD-1, sc, plasma), this compound had an area under the curve AUC(0-t) of 249 ± 15.5 µg·h/mL, a CL/F of 1.3 ± 0.3 mL/min/kg, a Cmax of 32200 ± 8500 ng/mL and a mean residence time (MRT) of 24.6 ± 16 h. For the same compound, in data set [1] (CD-1, sc, plasma), the Tmax was found to be 0.75 ± 0.4 h and the half-life is 18.5 ± 11 h.

The values are drawn from article PMC11984924, “Dipeptidic Phosphonates: Potent Inhibitors of Pseudomonas aeruginosa Elastase B Showing Efficacy in a Murine Keratitis Model” (Advanced Science, 2025).
